Assay results from patent US10662060B2, “Manufacture of lipid-based nanoparticles using a dual asymmetric centrifuge” (priority 2004, dated 2020).

Assays:
[1] = Inclusion efficiency for bendamustine in VPG (ion exchanger separation of free drug); format: physicochemical; settings: direct inclusion in VPG by speed mixing, 3540 rpm 30 min; ± SD
Method: (§1) Within the context of the present invention, the “enclosure efficiency” is the ratio (percentage) of the amount of the measured substance (e.g., of an active substance) which is included in the lipid-based nanoparticles, associated to the nanoparticles or incorporated into the nanoparticles, to the total amount of the respective substance used for the formulation.
Into a 25 ml injection bottle (outer diameter: 36 mm), 1.0 g of the mixture of hydrogenated egg phosphatidylcholine and cholesterol (55/45 mole %) existing as a solid solution as well as 1.0 g of glass beads (diameter 1 mm) was weighed under sterile conditions. The bottle was flange-sealed. Through the septum, 1.5 ml of a Bendamustin® hydrochloride solution (containing 9.09 mg of bendamustine/ml; the solution was prepared by reconstitution from Bendamustin of Ribosepharm; thus, 0.9% NaCl solution was injected into the medicine bottle with the lyophilized medicament) was added. […] Samples of the VPGs containing bendamustine were taken, and the inclusion efficiency for bendamustine was determined to be 40.6±3.08% (SD) (separation of the free bendamustine: by ion exchanger, Moog et al., Cancer Chem Pharmacol 49: 356 (2002), bendamustine analytics: Maas, B. et al., Pharmazie 49: 775-777 (1994)). The mean size of the vesicles was determined by PCS to be 62.5±3.5 nm (SD) (n: 8).

[2] = Inclusion efficiency for gemcitabine in VPG; format: physicochemical; settings: for Inclusion efficiency: then passive loading 60° C. 2 hours
Method: as §1
Into a 25 ml injection bottle (outer diameter: 36 mm), 1.48 g of the mixture of hydrogenated egg phosphatidylcholine and cholesterol (55/45 mole %) existing as a solid solution as well as 3 g of glass beads (diameter 1 mm) was weighed under sterile conditions. The bottle was flange-sealed. Through the septum, 500 μl of a Gemzar® solution (containing 38.02 mg of gemcitabine/ml; Gemzar® is the name of the gemcitabine-containing medicament of the company Lilly, one injection bottle contains 200 mg of gemcitabine (lyophilized) and is reconstituted with 5 ml of 0.9% NaCl) as well as 2.22 g of 5% mannitol solution was added. The mixture was subjected to speed mixing at 3540 rpm for 20 minutes to form gemcitabine-containing VPG.
Into a 25 ml injection bottle, 3.7 g of VPG (660 mM lipid, mixture of hydrogenated egg phosphatidylcholine and cholesterol (55/45 mole %), existing as a solid solution) was charged, and the bottle was centrifuged briefly, so that a uniformly thick layer of VPG formed at the bottom of the vessel. To this layer, 500 μl of a Gemzar® solution was added (contains 38.02 mg of gemcitabine/ml; Gemzar® is the name of the gemcitabine-containing medicament of the company Lilly, one injection bottle contains 200 mg of gemcitabine (lyophilized) and is reconstituted with 5.0 ml of 0.9% NaCl). […]
Subsequently, the VPG-gemcitabine mixture as well as a comparative sample in which gemcitabine was incorporated into the VPG by two shaking steps for 10 and 5 minutes, respectively, with an incubation break for 1 hour between, incubated at 60° C. for 2 hours for passive loading, the VPG was subsequently redispersed, and the inclusion efficiency for gemcitabine was determined.

[3] = empty VPG by high-pressure homogenization, gemcitabine incorporated by passive loading (EP 1 087 752); cited from earlier work
[4] = Inclusion efficiency for trypan blue in liposomes (absorption spectroscopy of supernatant); format: physicochemical; settings: EPC3/cholesterol 55/45; 3540 rpm 10 min
Method: Within the context of the present invention, the “enclosure efficiency” is the ratio (percentage) of the amount of the measured substance (e.g., of an active substance) which is included in the lipid-based nanoparticles, associated to the nanoparticles or incorporated into the nanoparticles, to the total amount of the respective substance used for the formulation. Into two glass vials (diameter 10 mm), 100 mg each of glass beads (diameter 1 mm) and 50 mg each of the mixture of hydrogenated egg phosphatidylcholine and cholesterol (55/45 mole %) existing as a solid solution was weighed. Into one vial, 75 μl of a trypan blue solution (1000 μl of commercially available trypan blue solution (0.4%) plus 30 ml of 25% ammonia solution) was pipetted. Into the second vial, 75 μl of 0.9% NaCl solution was added. The closed vials were subjected to speed mixing at 3540 rpm for 10 minutes each. The liposome gel loaded with trypan blue solution was redispersed with 250 μl of NaCl solution. The liposome gel prepared with saline only was redispersed with 175 μl of NaCl solution plus 75 μl of trypan blue solution. […] In the supernatant, the trypan blue concentration was subsequently determined by absorption spectroscopy, and the inclusion efficiency was calculated. […]

[5] = Inclusion efficiency for RNA-Cy3 in liposomes (fluorescence spectroscopy of supernatant); format: physicochemical; settings: 1 μM RNA-Cy3, 3540 rpm 10 min
Method: as §1
Into two glass vials (diameter 10 mm), 100 mg each of glass beads (diameter 1 mm) and 50 mg each of the mixture of hydrogenated egg phosphatidylcholine and cholesterol (55/45 mole %) existing as a solid solution was weighed. Into one vial, 75 μl of a 1 μM RNA-Cy3 solution (RNA: 27mer; 5′-GGA GCU CGC U T**C GGC GAG GUC GUG CCA-3′; T**=thymidine-C6-amino-NHS-Cy3; Cy3: fluorescence dye; Qiagen) was pipetted. Into the second vial, 75 μl of NaCl solution was added. The closed vials were subjected to speed mixing at 3540 rpm for 10 minutes each. The liposome gel loaded with RNA-Cy3 solution was redispersed with 250 μl of NaCl solution. […] In the supernatant, the relative concentrations of fluorescence-labeled RNA were subsequently determined by fluorescence spectroscopy (em: 565, ex; 515 nm), and the inclusion efficiency for RNA-Cy3 was calculated by dividing the values by one another (60.1%). The mean size of the redispersed vesicles was determined by means of PCS to be 127.8 nm. […]

[6] = Mean size of liposomes / lipid-based nanoparticles by photon correlation spectroscopy (PCS); format: physicochemical

## Cn1c(CCCC(=O)O)nc2cc(N(CCCl)CCCl)ccc21 [bendamustine]
[1]
  inclusion efficiency for bendamustine: 40.6±3.08%

## Nc1ccn([C@@H]2O[C@H](CO)[C@@H](O)C2(F)F)c(=O)n1 [gemcitabine]
[2]; direct inclusion in VPG by speed mixing, 3540 rpm 20 min
  inclusion efficiency for gemcitabine: 80.7%
[2]; gemcitabine incorporated into prefabricated VPG by shaking (10 and 5 min)
  Inclusion efficiency: 47%
[2]; gemcitabine incorporated into prefabricated VPG by speed mixing (0.5 min)
  Inclusion efficiency: 44%
[3]
  inclusion efficiency for passive loading: 43-47%

## Cc1cc(-c2ccc(/N=N/c3c(S(=O)(=O)O)cc4cc(S(=O)(=O)O)cc(N)c4c3O)c(C)c2)ccc1/N=N/c1c(S(=O)(=O)O)cc2cc(S(=O)(=O)O)cc(N)c2c1O [trypan blue]
[4]
  inclusion efficiency for trypan blue in liposomes by speed mixing: 51%

## RNA-Cy3: fluorescence-labeled RNA 27mer 5′-GGA GCU CGC U T**C GGC GAG GUC GUG CCA-3′, T**=thymidine-C6-amino-NHS-Cy3 (Qiagen) (chain 1 GGAGCUCGCUT; chain 2 CGGCGAGGUCGUGCCA; Cy3 label on thymidine-C6-amino, chemistry not fully specified)
[5]; negatively charged liposomes (hydrogenated egg PC/cholesterol/DPPG 46/33/20)
  inclusion efficiency for RNA-Cy3: 82.9%
[5]; neutral liposomes (hydrogenated egg PC/cholesterol 55/45)
  inclusion efficiency for RNA-Cy3: 60.1%
[6]; RNA-Cy3-loaded negatively charged liposomes (hydrogenated egg PC/cholesterol/DPPG 46/33/20)
  mean size of the redispersed vesicles: 238.1 nm
[6]; RNA-Cy3-loaded neutral liposomes (hydrogenated egg PC/cholesterol 55/45)
  mean size of the redispersed vesicles: 127.8 nm
